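The compound was tested at five concentrations on cells cultured in 96-well plates, with a 48-hour exposure period. The concentration for 50% growth inhibition is given as GI50. TGI marks complete inhibition of growth.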
What was measured:
Test in all cases: NCI anticancer screen, dose series, 48 h
[1] = test system: OVCAR-3 ovarian
[2] = test system: DU-145 prostate
[3] = test system: NCI/ADR-RES ovarian
[4] = test system: HCT-15 colon
[5] = test system: HCC-2998 colon
[6] = test system: 786-0 renal
[7] = test system: TK-10 renal
[8] = test system: OVCAR-8 ovarian
[9] = test system: CAKI-1 renal
[10] = test system: NCI-H226 lung
[11] = test system: SR leukemia
[12] = test system: U251 CNS
[13] = test system: UO-31 renal
[14] = test system: T-47D breast
[15] = test system: MDA-MB-435
[16] = test system: CCRF-CEM leukemia
[17] = test system: RPMI-8226 leukemia
[18] = test system: NCI-H23 lung
[19] = test system: BT-549 breast
[20] = test system: K-562 leukemia
[21] = test system: MDA-MB-231 breast
[22] = test system: COLO 205 colon
[23] = test system: SNB-75 CNS
[24] = test system: M14 melanoma
[25] = test system: HOP-92 NSCLC
[26] = test system: HL-60(TB) leukemia
[27] = test system: HCT-116 colon
[28] = test system: SF-295 CNS
[29] = test system: LOX IMVI melanoma
[30] = test system: SK-OV-3 ovarian
[31] = test system: SN12C renal
[32] = test system: HT29 colon
[33] = test system: MCF7 breast
[34] = test system: KM12 colon
[35] = test system: A498 renal
[36] = test system: SK-MEL-2 melanoma
[37] = test system: A549 NSCLC
[38] = test system: IGROV1 ovarian
[39] = test system: HS 578T breast
[40] = test system: SNB-19 CNS
[41] = test system: SK-MEL-28 melanoma
[42] = test system: EKVX NSCLC
[43] = test system: MOLT-4 leukemia
[44] = test system: UACC-257 melanoma
[45] = test system: SF-268 CNS
[46] = test system: NCI-H460 lung
[47] = test system: ACHN renal
[48] = test system: SW-620 colon
[49] = test system: HOP-62 NSCLC
[50] = test system: OVCAR-4 ovarian
[51] = test system: MALME-3M melanoma
[52] = test system: NCI-H522 lung
[53] = test system: SF-539 CNS
[54] = test system: SK-MEL-5 melanoma
[55] = test system: UACC-62 melanoma
[56] = test system: RXF 393 renal
[57] = test system: OVCAR-5 ovarian

O=C(/C=C/c1cccc(O)c1)c1cccc(-n2cc(-c3ccc(Cl)cc3)[nH]c2=O)c1
GI50 [1]: 1.56 µM
TGI [1]: 3.44 µM
GI50 [2]: 1.68 µM
TGI [2]: 4.18 µM
GI50 [3]: 2.2 µM
TGI [3]: 5.96 µM
GI50 [4]: 2.34 µM
TGI [4]: 10.5 µM
GI50 [5]: 13.7 µM
TGI [5]: 27.6 µM
GI50 [6]: 1.57 µM
TGI [6]: 2.99 µM
GI50 [7]: 2.83 µM
TGI [7]: 9.13 µM
GI50 [8]: 0.998 µM
TGI [8]: > 100 µM
GI50 [9]: 1.72 µM
TGI [9]: 4.07 µM
GI50 [10]: 2.31 µM
TGI [10]: 5.5 µM
GI50 [11]: 0.217 µM
TGI [11]: 1.07 µM
GI50 [12]: 0.588 µM
TGI [12]: 2.15 µM
GI50 [13]: 0.558 µM
TGI [13]: 3.46 µM
GI50 [14]: 1.92 µM
TGI [14]: 6.03 µM
GI50 [15]: 2.06 µM
TGI [15]: 6.64 µM
GI50 [16]: 1.76 µM
TGI [16]: 9.97 µM
GI50 [17]: 1.55 µM
TGI [17]: 4.64 µM
GI50 [18]: 2.78 µM
TGI [18]: 10.6 µM
GI50 [19]: 1.45 µM
TGI [19]: 3.72 µM
GI50 [20]: 0.405 µM
TGI [20]: 3.63 µM
GI50 [21]: 3.35 µM
TGI [21]: 17.3 µM
GI50 [22]: 2.29 µM
TGI [22]: 4.95 µM
GI50 [23]: 1.46 µM
TGI [23]: 3.04 µM
GI50 [24]: 2.01 µM
TGI [24]: 4.44 µM
GI50 [25]: 1.6 µM
TGI [25]: 5.41 µM
GI50 [26]: 1.09 µM
TGI [26]: 3.51 µM
GI50 [27]: 1.23 µM
TGI [27]: 2.52 µM
GI50 [28]: 1.79 µM
TGI [28]: 3.88 µM
GI50 [29]: 1.57 µM
TGI [29]: 3.11 µM
GI50 [30]: 4.22 µM
TGI [30]: 17.2 µM
GI50 [31]: 1.95 µM
TGI [31]: 5.93 µM
GI50 [32]: 1.9 µM
TGI [32]: 3.99 µM
GI50 [33]: 1.29 µM
TGI [33]: 3.76 µM
GI50 [34]: 1.34 µM
TGI [34]: 3 µM
GI50 [35]: 3.71 µM
TGI [35]: 16.1 µM
GI50 [36]: 2.07 µM
TGI [36]: 4.67 µM
GI50 [37]: 3.55 µM
TGI [37]: > 100 µM
GI50 [38]: 1.92 µM
TGI [38]: 6.38 µM
GI50 [39]: 4 µM
TGI [39]: 44 µM
GI50 [40]: 1.92 µM
TGI [40]: 4.37 µM
GI50 [41]: 3.64 µM
TGI [41]: 15.9 µM
GI50 [42]: 2.4 µM
TGI [42]: 9.62 µM
GI50 [43]: 0.535 µM
TGI [43]: 6.31 µM
GI50 [44]: 4.07 µM
TGI [44]: 26.3 µM
GI50 [45]: 1.78 µM
TGI [45]: 3.94 µM
GI50 [46]: 2.41 µM
TGI [46]: 5.99 µM
GI50 [47]: 1.84 µM
TGI [47]: 4.13 µM
GI50 [48]: 1.62 µM
TGI [48]: 4.74 µM
GI50 [49]: 2.36 µM
TGI [49]: 4.88 µM
GI50 [50]: 2.21 µM
TGI [50]: 8.96 µM
GI50 [51]: 1.83 µM
TGI [51]: 6.16 µM
GI50 [52]: 1.65 µM
TGI [52]: 4.36 µM
GI50 [53]: 1.68 µM
TGI [53]: 3.22 µM
GI50 [54]: 1.53 µM
TGI [54]: 3.36 µM
GI50 [55]: 1.85 µM
TGI [55]: 4.27 µM

CC#CC#Cc1cccc(=O)o1
GI50 [1]: 3.34 µM
TGI [1]: 10.2 µM
GI50 [56]: 2.48 µM
TGI [56]: 6.63 µM
GI50 [2]: 15.7 µM
TGI [2]: 29.2 µM
GI50 [3]: 18.2 µM
TGI [3]: > 100 µM
GI50 [4]: 8.08 µM
TGI [4]: 30.2 µM
GI50 [5]: 16 µM
TGI [5]: 29.5 µM
GI50 [6]: 13.6 µM
TGI [6]: 28.9 µM
GI50 [7]: 5.08 µM
TGI [7]: 18.3 µM
GI50 [8]: 4.89 µM
TGI [8]: > 100 µM
GI50 [9]: 2.1 µM
TGI [9]: 4.78 µM
GI50 [57]: 24.2 µM
TGI [57]: 40 µM
GI50 [10]: 21 µM
TGI [10]: 96.1 µM
GI50 [11]: 1.38 µM
TGI [11]: 7.2 µM
GI50 [12]: 11.2 µM
TGI [12]: 24.9 µM
GI50 [13]: 10.2 µM
TGI [13]: 22.6 µM
GI50 [14]: 4.35 µM
TGI [14]: 18.7 µM
GI50 [15]: 3.82 µM
TGI [15]: 22.7 µM
GI50 [18]: 5.97 µM
TGI [18]: 21.8 µM
GI50 [19]: 2.37 µM
TGI [19]: 10.1 µM
GI50 [20]: 0.0136 µM
TGI [20]: > 100 µM
GI50 [21]: 10.8 µM
TGI [21]: 24.7 µM
GI50 [22]: 3.85 µM
TGI [22]: 14.4 µM
GI50 [23]: 4.75 µM
TGI [23]: 21 µM
GI50 [24]: 9.52 µM
TGI [24]: 24.3 µM
GI50 [26]: 2.91 µM
TGI [26]: 18.1 µM
GI50 [27]: 2.1 µM
TGI [27]: 5.79 µM
GI50 [28]: 12.8 µM
TGI [28]: 26.3 µM
GI50 [29]: 10.7 µM
TGI [29]: 24.1 µM
GI50 [30]: 20.5 µM
TGI [30]: 56.4 µM
GI50 [31]: 26.8 µM
TGI [31]: > 100 µM
GI50 [32]: 4.17 µM
TGI [32]: 14.6 µM
GI50 [33]: 3.4 µM
TGI [33]: 18.4 µM
GI50 [34]: 4.87 µM
TGI [34]: 17 µM
GI50 [35]: 16.5 µM
TGI [35]: 30 µM
GI50 [36]: 3.73 µM
TGI [36]: 34.3 µM
GI50 [37]: 14.6 µM
TGI [37]: 31.5 µM
GI50 [38]: 4.31 µM
TGI [38]: 19.8 µM
GI50 [39]: 10.2 µM
TGI [39]: 81.4 µM
GI50 [40]: 16.9 µM
TGI [40]: 30.5 µM
GI50 [41]: 4.25 µM
TGI [41]: 16.7 µM
GI50 [42]: 3.14 µM
TGI [42]: 16.2 µM
GI50 [43]: 1.14 µM
TGI [43]: > 100 µM
GI50 [44]: 8.58 µM
TGI [44]: 23.3 µM
GI50 [45]: 4.29 µM
TGI [45]: 18.1 µM
GI50 [46]: 13.5 µM
TGI [46]: 29 µM
GI50 [47]: 8.15 µM
TGI [47]: 20.6 µM
GI50 [48]: 10 µM
TGI [48]: 24.9 µM
GI50 [49]: 13.8 µM
TGI [49]: 27 µM
GI50 [50]: 13 µM
TGI [50]: 25.6 µM
GI50 [51]: 2.8 µM
TGI [51]: 14.1 µM
GI50 [52]: 3.67 µM
TGI [52]: 16.3 µM
GI50 [53]: 5.63 µM
TGI [53]: 26.6 µM
GI50 [54]: 11.3 µM
TGI [54]: 26.7 µM
GI50 [55]: 2.98 µM
TGI [55]: 14.6 µM

Reference: PubChem BioAssay (NCI)
